Source: ChEMBL document CHEMBL3044926, “Controlling powdery mildew on cucurbit rootstock seedlings in the greenhouse with fungicides and biofungicides” (Crop Prot, 2012)

Legend:
[1] = tested on: Lagenaria siceraria; assay: Phytotoxicity against Lagenaria siceraria 'Emphasis' rootstock seedlings; type: organism-based; conditions: in vivo
[2] = tested on: Cucurbita maxima x Cucurbita moschata; assay: Phytotoxicity against inter-specific squash hybrid Cucurbita moschata x Cucurbita maxima (Strong tosa) rootstock seedlings; type: organism-based; conditions: in vivo
[3] = tested on: Cucurbita maxima x Cucurbita moschata; assay: Phytotoxicity against inter-specific squash hybrid Cucurbita moschata x Cucurbita maxima (Strong tosa) rootstock seedlings assessed as stunting; type: organism-based; conditions: in vivo
[4] = tested on: Lagenaria siceraria; assay: Phytotoxicity against Lagenaria siceraria 'Emphasis' rootstock seedlings assessed as stunting; type: organism-based; conditions: in vivo
[5] = tested on: Lagenaria siceraria; assay: Phytotoxicity against Lagenaria siceraria 'Emphasis' rootstock seedlings assessed as stunted growth; type: organism-based; conditions: in vivo
[6] = tested on: Cucurbita maxima x Cucurbita moschata; assay: Phytotoxicity against inter-specific squash hybrid Cucurbita moschata x Cucurbita maxima (Strong tosa) rootstock seedlings assessed as stunted growth; type: organism-based; conditions: in vivo
[7] = tested on: Podosphaera xanthii; assay: (§1) Fungicidal activity against Podosphaera xanthii (powdery mildew) inoculated in Lagenaria siceraria Emphasis continuously after first drug application assessed as disease severity on lower surface areas of cotyledons at 40% in 0.37 ml/L applied thrice at 5-days intervals measured 5 days after third application under green house conditions (water Rvb = 13.9%); type: functional
[8] = tested on: Podosphaera xanthii; assay: (§2) Fungicidal activity against Podosphaera xanthii (powdery mildew) inoculated in inter-specific squash hybrid Strong tosa (Cucurbita moschata x Cucurbita maxima) rootstock seedlings for 7 days prior to drug application assessed as disease severity at 40% in 0.37 ml/L applied once measured 7 days post-drug dose under greenhouse conditions (water Rvb = 17.5%); type: functional
[9] = tested on: Podosphaera xanthii; assay: as §1, with “upper” for “lower”, “36.8%)” for “13.9%)”; type: functional
[10] = tested on: Podosphaera xanthii; assay: Fungicidal activity against Podosphaera xanthii (powdery mildew) inoculated in inter-specific squash hybrid Strong tosa (Cucurbita moschata x Cucurbita maxima) rootstock seedlings for 7 days prior to drug application assessed as incidence of disease symptoms on hypocotyls or upper or lower sides of cotyledons at 40% in 0.37 ml/L applied once measured 7 days post-drug dose under greenhouse …; type: functional
[11] = tested on: Podosphaera xanthii; assay: as §1, with “squash (Cucurbita pepo) rootstock seedlings” for “Lagenaria siceraria Emphasis”, “severity” for “severity on lower surface areas of cotyledons”, “3.9%)” for “13.9%)”; type: functional
[12] = tested on: Podosphaera xanthii; assay: Fungicidal activity against Podosphaera xanthii (powdery mildew) inoculated in squash (Cucurbita pepo) rootstock seedlings continuously after first drug application assessed as incidence of disease symptoms on hypocotyls or upper or lower sides of cotyledons at 40% in 0.37 ml/L applied thrice at 5-days intervals measured 5 days after third application under green house conditions (water Rvb = …; type: functional
[13] = tested on: Podosphaera xanthii; assay: as §2, with “severity on upper surface areas of cotyledonsat” for “severity at”, “= 10.2%)” for “= 17.5%)”; type: functional
[14] = tested on: Podosphaera xanthii; assay: as §1, with “severity” for “severity on lower surface areas of cotyledons”, “53.5%)” for “13.9%)”; type: functional
[15] = tested on: Podosphaera xanthii; assay: (§3) Fungicidal activity against Podosphaera xanthii (powdery mildew) inoculated in Lagenaria siceraria Emphasis continuously after first drug application assessed as incidence of disease symptoms on hypocotyls or upper or lower sides of cotyledons at 40% in 0.37 ml/L applied thrice at 5-days intervals measured 5 days after third application under green house conditions (water Rvb = 100%); type: functional
[16] = tested on: Podosphaera xanthii; assay: as §2, with “severity on lower surface areas of cotyledonsat” for “severity at”, “= 5.1%)” for “= 17.5%)”; type: functional
[17] = tested on: Podosphaera xanthii; assay: as §2, with “20.6%” for “40%”, “1.36” for “0.37”; type: functional
[18] = tested on: Podosphaera xanthii; assay: as §1, with “20.6%” for “40%”, “1.36” for “0.37”; type: functional
[19] = tested on: Podosphaera xanthii; assay: as §1, with “upper” for “lower”, “20.6%” for “40%”, “1.36” for “0.37”, “36.8%)” for “13.9%)”; type: functional
[20] = tested on: Podosphaera xanthii; assay: Fungicidal activity against Podosphaera xanthii (powdery mildew) inoculated in inter-specific squash hybrid Strong tosa (Cucurbita moschata x Cucurbita maxima) rootstock seedlings for 7 days prior to drug application assessed as incidence of disease symptoms on hypocotyls or upper or lower sides of cotyledons at 20.6% in 1.36 ml/L applied once measured 7 days post-drug dose under greenhouse …; type: functional
[21] = tested on: Podosphaera xanthii; assay: (§4) Fungicidal activity against Podosphaera xanthii (powdery mildew) inoculated in squash (Cucurbita pepo) rootstock seedlings continuously after first drug application assessed as disease severity at 20.6% in 1.36 ml/L applied thrice at 5-days intervals measured 5 days after third application under green house conditions (water Rvb = 3.9%); type: functional
[22] = tested on: Podosphaera xanthii; assay: Fungicidal activity against Podosphaera xanthii (powdery mildew) inoculated in squash (Cucurbita pepo) rootstock seedlings continuously after first drug application assessed as incidence of disease symptoms on hypocotyls or upper or lower sides of cotyledons at 20.6% in 1.36 ml/L applied thrice at 5-days intervals measured 5 days after third application under green house conditions (water Rvb = …; type: functional
[23] = tested on: Podosphaera xanthii; assay: as §2, with “on upper surface areas of cotyledonsat 20.6%” for “at 40%”, “1.36” for “0.37”, “10.2%)” for “17.5%)”; type: functional
[24] = tested on: Podosphaera xanthii; assay: as §4, with “Lagenaria siceraria Emphasis” for “squash (Cucurbita pepo) rootstock seedlings”, “53.5%)” for “3.9%)”; type: functional
[25] = tested on: Podosphaera xanthii; assay: as §3, with “20.6%” for “40%”, “1.36” for “0.37”; type: functional
[26] = tested on: Podosphaera xanthii; assay: as §2, with “on lower surface areas of cotyledonsat 20.6%” for “at 40%”, “1.36” for “0.37”, “5.1%)” for “17.5%)”; type: functional
[27] = tested on: Lagenaria siceraria; assay: Phytotoxicity against Lagenaria siceraria 'Emphasis' rootstock seedlings assessed as severe chlorosis or necrosis on cotyledons; type: organism-based; conditions: in vivo
[28] = tested on: Cucurbita maxima x Cucurbita moschata; assay: Phytotoxicity against inter-specific squash hybrid Cucurbita moschata x Cucurbita maxima (Strong tosa) rootstock seedlings assessed as severe chlorosis or necrosis on cotyledons; type: organism-based; conditions: in vivo
[29] = tested on: Podosphaera xanthii; assay: as §2, with “on upper surface areas of cotyledonsat 22.58%” for “at 40%”, “0.47ml/L” for “0.37 ml/L”, “10.2%)” for “17.5%)”; type: functional
[30] = tested on: Podosphaera xanthii; assay: as §2, with “22.58%” for “40%”, “0.47ml/L” for “0.37 ml/L”; type: functional
[31] = tested on: Podosphaera xanthii; assay: Fungicidal activity against Podosphaera xanthii (powdery mildew) inoculated in inter-specific squash hybrid Strong tosa (Cucurbita moschata x Cucurbita maxima) rootstock seedlings for 7 days prior to drug application assessed as incidence of disease symptoms on hypocotyls or upper or lower sides of cotyledons at 22.58% in 0.47ml/L applied once measured 7 days post-drug dose under greenhouse …; type: functional
[32] = tested on: Podosphaera xanthii; assay: as §4, with “22.58%” for “20.6%”, “0.47ml/L” for “1.36 ml/L”; type: functional
[33] = tested on: Podosphaera xanthii; assay: Fungicidal activity against Podosphaera xanthii (powdery mildew) inoculated in squash (Cucurbita pepo) rootstock seedlings continuously after first drug application assessed as incidence of disease symptoms on hypocotyls or upper or lower sides of cotyledons at 22.58% in 0.47ml/L applied thrice at 5-days intervals measured 5 days after third application under green house conditions (water Rvb = …; type: functional
[34] = tested on: Podosphaera xanthii; assay: as §2, with “on lower surface areas of cotyledonsat 22.58%” for “at 40%”, “0.47ml/L” for “0.37 ml/L”, “5.1%)” for “17.5%)”; type: functional

For OO [HYDROGEN PEROXIDE], which Activity [1] is on record?
The Activity was “Non-toxic”.

And the Activity [2]?
Its Activity is “Non-toxic”.

And the Activity [3]?
Its Activity is “Non-toxic”.

And the Activity [4]?
Its Activity is “Non-toxic”.

CCCCC(C#N)(Cn1cncn1)c1ccc(Cl)cc1 (stereo not given) [MYCLOBUTANIL] was tested. Which “inhibition (INH)” value [5] did it give?
Its value is 33%.

And the “inhibition (INH)” value [6]?
The value was 33%.

And the Activity [7]?
The Activity was 0.9%.

And the Activity [8]?
The Activity was 0.1%.

What about the Activity [9] of the same compound?
The Activity was 3.1%.

What about the Activity [10] of the same compound?
The Activity was 2.3%.

What about the Activity [11] of the same compound?
The Activity was 0%.

What about the Activity [12] of the same compound?
Its Activity is 0%.

What about the Activity [13] of the same compound?
Its Activity is 0.08%.

And the Activity [14]?
Its Activity is 4.1%.

What about the Activity [15] of the same compound?
Its Activity is 65.1%.

What about the Activity [16] of the same compound?
The Activity was 0.02%.

What does the source list for CC(C)CC(C)c1sccc1NC(=O)c1cn(C)nc1C(F)(F)F (stereo not given) [PENTHIOPYRAD]?
Activity [17]: 0.05%; Activity [18]: 0.3%; Activity [19]: 0.9%; Activity [20]: 2.3%; Activity [21]: 0%; Activity [22]: 0%; Activity [23]: 0%; Activity [24]: 1.3%; Activity [25]: 14.6%; Activity [3]: Toxic; Activity [4]: Toxic; Activity [26]: 0.03%

What does the source list for O=C([O-])O.[K+] [POTASSIUM BICARBONATE]?
Activity [1]: Non-toxic; Activity [2]: Non-toxic; Activity [3]: Non-toxic; Activity [4]: Non-toxic

Which Activity [27] does the source give for Fc1ccc(Oc2ccnc3cc(Cl)cc(Cl)c23)cc1 [QUINOXYFEN] here?
Its Activity is “Toxic”.

What about the Activity [28] of the same compound?
Its Activity is “Toxic”.

And the Activity [29]?
Its Activity is 1.2%.

What about the Activity [30] of the same compound?
The Activity was 1.8%.

And the Activity [31]?
The Activity was 14.6%.

And the Activity [32]?
Its Activity is 0.43%.

And the Activity [33]?
The Activity was 23.4%.

What about the Activity [34] of the same compound?
Its Activity is 0.3%.
